1 molecule from publication PMC5218480 (PLoS ONE, 2017) can be followed below.

This experiment deals with MV-4-11 cells. In words: Gene expression microarray analysis (Affymetrix PrimeView) and GSEA. It counts as cell-based, human. The conditions noted are these: ProbeSet 11716844_s_at; LIST D. Further details: RFU PODN (11730768_x_at) / Fold change /veh PODN (11730768_x_at) / RFU LINC00158 (11744669_a_at) / Fold change /veh LINC00158 (11744669_a_at) / RFU DUSP10 (11751237_a_at) / Fold change /veh DUSP10 (11751237_a_at) / RFU ID3 (11757404_x_at) / Fold change /veh ID3 (11757404_x_at) / RFU PLEKHG5 (11737974_s_at) / Fold change /veh PLEKHG5 (11737974_s_at) / RFU LRRC4B (11730491_at) / Fold change /veh LRRC4B (11730491_at) / RFU GIMAP4 (11747438_a_at) / Fold change /veh GIMAP4 (11747438_a_at) / RFU KRT8 (11758183_x_at) / Fold change /veh KRT8 (11758183_x_at) / RFU CNN1 (11734310_a_at) / Fold change /veh CNN1 (11734310_a_at) / RFU VPS37D (11726825_at) / Fold change /veh VPS37D (11726825_at) / RFU C10orf10 (11716522_x_at) / Fold change /veh C10orf10 (11716522_x_at) / RFU KIR2DL2 /// KIR2DL4 /// KIR2DL5A /// KIR2DL5B /// KIR2DS1 /// KIR2DS2 /// KIR2DS3 /// KIR2DS4 /// KIR3DL3 /// KIR3DL3 /// KIR3DS1 (11738374_at) / Fold change /veh KIR2DL2 /// KIR2DL4 /// KIR2DL5A /// KIR2DL5B /// KIR2DS1 /// KIR2DS2 /// KIR2DS3 /// KIR2DS4 /// KIR3DL3 /// KIR3DL3 /// KIR3DS1 (11738374_at) / RFU C1QL1 (11718748_at) / Fold change /veh C1QL1 (11718748_at) / RFU TMPRSS4 (11747572_a_at) / Fold change /veh TMPRSS4 (11747572_a_at) / RFU HAMP (11756126_x_at) / Fold change /veh HAMP (11756126_x_at) / RFU RNFT2 (11725882_a_at) / Fold change /veh RNFT2 (11725882_a_at) / RFU NR4A2 (11747474_a_at) / Fold change /veh NR4A2 (11747474_a_at) / RFU ABCC12 (11746883_a_at) / Fold change /veh ABCC12 (11746883_a_at) / RFU TMEM136 (11760407_x_at) / Fold change /veh TMEM136 (11760407_x_at) / RFU CLDN22 /// WWC2 (11732394_at) / Fold change /veh CLDN22 /// WWC2 (11732394_at) / RFU HLA-DPB1 (11760878_x_at) / Fold change /veh HLA-DPB1 (11760878_x_at) / RFU SPINT1 (11716480_a_at) / Fold change /veh SPINT1 (11716480_a_at) / RFU GAP43 (11754022_s_at) / Fold change /veh GAP43 (11754022_s_at) / RFU A4GNT (11735810_at) / Fold change /veh A4GNT (11735810_at) / RFU PRB3 (11715151_x_at) / Fold change /veh PRB3 (11715151_x_at) / RFU TUBB4B (11761932_at) / Fold change /veh TUBB4B (11761932_at) / RFU CAPN14 (11732068_a_at) / Fold change /veh CAPN14 (11732068_a_at) / RFU TMCC2 (11721928_a_at) / Fold change /veh TMCC2 (11721928_a_at) / RFU IRGQ (11745062_a_at) / Fold change /veh IRGQ (11745062_a_at) / RFU FAM174B (11720279_a_at) / Fold change /veh FAM174B (11720279_a_at) / RFU TMPRSS4 (11748680_a_at) / Fold change /veh TMPRSS4 (11748680_a_at) / RFU FAM212B (11763350_a_at) / Fold change /veh FAM212B (11763350_a_at) / RFU PLEKHG5 (11743358_a_at) / Fold change /veh PLEKHG5 (11743358_a_at) / RFU ZSCAN30 (11745921_a_at) / Fold change /veh ZSCAN30 (11745921_a_at) / RFU CMKLR1 (11741424_a_at) / Fold change /veh CMKLR1 (11741424_a_at) / RFU LOC101060620 /// MAPK8IP1 (11723275_at) / Fold change /veh LOC101060620 /// MAPK8IP1 (11723275_at) / RFU SPTSSB (11747773_x_at) / Fold change /veh SPTSSB (11747773_x_at) / RFU PRSS12 (11739890_at) / Fold change /veh PRSS12 (11739890_at) / RFU BIN1 (11741810_x_at) / Fold change /veh BIN1 (11741810_x_at) / RFU WNT11 (11732464_a_at) / Fold change /veh WNT11 (11732464_a_at) / RFU C10orf10 (11716521_a_at) / Fold change /veh C10orf10 (11716521_a_at) / RFU C5orf56 (11738089_at) / Fold change /veh C5orf56 (11738089_at) / RFU CYB561 (11721691_x_at) / Fold change /veh CYB561 (11721691_x_at) / RFU ANKRD19P (11752326_a_at) / Fold change /veh ANKRD19P (11752326_a_at) / RFU OR2T12 /// OR2T33 /// OR2T8 (11738714_s_at) / Fold change /veh OR2T12 /// OR2T33 /// OR2T8 (11738714_s_at) / RFU VCAN (11748164_a_at) / Fold change /veh VCAN (11748164_a_at) / RFU JSRP1 (11732532_at) / Fold change /veh JSRP1 (11732532_at) / RFU KRTAP10-11 (11738290_x_at) / Fold change /veh KRTAP10-11 (11738290_x_at) / RFU MYO3A (11730013_a_at) / Fold change /veh MYO3A (11730013_a_at) / RFU EBF3 (11725865_a_at) / Fold change /veh EBF3 (11725865_a_at) / RFU CAMK2N1 (11719241_x_at) / Fold change /veh CAMK2N1 (11719241_x_at) / RFU C5orf56 (11738088_a_at) / Fold change /veh C5orf56 (11738088_a_at) / RFU OLFML3 (11715873_a_at) / Fold change /veh OLFML3 (11715873_a_at) / RFU LOC100653217 /// NTM (11731650_a_at) / Fold change /veh LOC100653217 /// NTM (11731650_a_at) / RFU MAPK11 (11762145_a_at) / Fold change /veh MAPK11 (11762145_a_at) / RFU FIZ1 (11724087_x_at) / Fold change /veh FIZ1 (11724087_x_at) / RFU OASL (11726364_x_at) / Fold change /veh OASL (11726364_x_at) / RFU SOX15 (11748057_x_at) / Fold change /veh SOX15 (11748057_x_at) / RFU CD79A (11719716_a_at) / Fold change /veh CD79A (11719716_a_at) / RFU HIST1H1D (11736915_at) / Fold change /veh HIST1H1D (11736915_at) / RFU CASKIN2 (11723855_a_at) / Fold change /veh CASKIN2 (11723855_a_at) / RFU LOC730098 (11760151_x_at) / Fold change /veh LOC730098 (11760151_x_at) / RFU OR4N2 (11742367_at) / Fold change /veh OR4N2 (11742367_at) / RFU PRRT2 (11749266_a_at) / Fold change /veh PRRT2 (11749266_a_at) / RFU SNX32 (11753110_a_at) / Fold change /veh SNX32 (11753110_a_at) / RFU CDHR5 (11726645_a_at) / Fold change /veh CDHR5 (11726645_a_at) / RFU RCAN1 (11760418_a_at) / Fold change /veh RCAN1 (11760418_a_at) / RFU FAM167A (11723789_a_at) / Fold change /veh FAM167A (11723789_a_at) / RFU FAM26E (11764081_at) / Fold change /veh FAM26E (11764081_at) / RFU ISYNA1 (11749810_s_at) / Fold change /veh ISYNA1 (11749810_s_at) / RFU ACY1 (11761880_at) / Fold change /veh ACY1 (11761880_at) / RFU 11764098_at / Fold change /veh 11764098_at / RFU SAMD14 (11745864_x_at) / Fold change /veh SAMD14 (11745864_x_at) / RFU NPB (11741838_a_at) / Fold change /veh NPB (11741838_a_at) / RFU TMPRSS6 (11731388_a_at) / Fold change /veh TMPRSS6 (11731388_a_at) / RFU KRTAP10-2 (11738614_at) / Fold change /veh KRTAP10-2 (11738614_at) / RFU ARHGAP8 /// PRR5-ARHGAP8 (11727945_x_at) / Fold change /veh ARHGAP8 /// PRR5-ARHGAP8 (11727945_x_at) / RFU KRTAP5-7 /// NADSYN1 (11734609_at) / Fold change /veh KRTAP5-7 /// NADSYN1 (11734609_at) / RFU RASL12 (11751679_a_at) / Fold change /veh RASL12 (11751679_a_at) / RFU CDKN2B (11736163_a_at) / Fold change /veh CDKN2B (11736163_a_at) / RFU PRF1 (11729649_at) / Fold change /veh PRF1 (11729649_at) / RFU, ZNF638 /// ZNF638-IT1 / Fold change vs veh, ZNF638 /// ZNF638-IT1 / RFU, PANK3 / Fold change vs veh, PANK3 / RFU, SH3YL1 / Fold change vs veh, SH3YL1 / RFU, ZEB2 / Fold change vs veh, ZEB2 / RFU, NRIP1 / Fold change vs veh, NRIP1 / RFU, PTTG1IP / Fold change vs veh, PTTG1IP / RFU, CAPN2 / Fold change vs veh, CAPN2 / RFU, MED14 / Fold change vs veh, MED14 / RFU, SNORA58 / Fold change vs veh, SNORA58 / RFU, C1orf63 / Fold change vs veh, C1orf63 / RFU, LRRFIP1 / Fold change vs veh, LRRFIP1 / RFU, NDUFAF7 / Fold change vs veh, NDUFAF7 / RFU, SLC12A2 / Fold change vs veh, SLC12A2 / RFU, IBTK / Fold change vs veh, IBTK / RFU, ESF1 / Fold change vs veh, ESF1 / Fold change vs veh, TMEM50B / RFU, TAOK1 / Fold change vs veh, TAOK1 / RFU, ACBD3 / Fold change vs veh, ACBD3 / RFU, TMA16 / Fold change vs veh, TMA16 / RFU, RWDD3 / Fold change vs veh, RWDD3 / RFU, BCAT1 / Fold change vs veh, BCAT1 / RFU, EDEM3 / Fold change vs veh, EDEM3 / RFU, TMEM33 / Fold change vs veh, TMEM33 / RFU, WDR75 / Fold change vs veh, WDR75 / RFU, AHCTF1 / Fold change vs veh, AHCTF1 / RFU, TFRC / Fold change vs veh, TFRC / RFU, ZDHHC17 / Fold change vs veh, ZDHHC17 / RFU, NOM1 / Fold change vs veh, NOM1 / RFU, ARL8B / Fold change vs veh, ARL8B / RFU, ZBTB11 / Fold change vs veh, ZBTB11 / RFU, TAMM41 / Fold change vs veh, TAMM41 / RFU, KIAA1704 /// LOC100996395 / Fold change vs veh, KIAA1704 /// LOC100996395 / RFU, ING1 / Fold change vs veh, ING1 / RFU, TRMT61B / Fold change vs veh, TRMT61B / RFU, FUBP3 / Fold change vs veh, FUBP3 / RFU, TP53 / Fold change vs veh, TP53 / RFU, TNKS2 / Fold change vs veh, TNKS2 / RFU, ZFP14 / Fold change vs veh, ZFP14 / RFU, ACTR2 / Fold change vs veh, ACTR2 / RFU, PPP3R1 / Fold change vs veh, PPP3R1 / RFU, PIK3R1 / Fold change vs veh, PIK3R1 / RFU, HNRNPA1 / Fold change vs veh, HNRNPA1 / RFU, RNF170 / Fold change vs veh, RNF170 / RFU, ZNF28 / Fold change vs veh, ZNF28 / RFU, RNGTT / Fold change vs veh, RNGTT / RFU, OGT / Fold change vs veh, OGT / RFU, BRD1 / Fold change vs veh, BRD1 / RFU, MARS / Fold change vs veh, MARS / RFU, ZNF655 / Fold change vs veh, ZNF655 / RFU, FAHD1 / Fold change vs veh, FAHD1 / RFU, BDP1 / Fold change vs veh, BDP1 / RFU, LRRCC1 / Fold change vs veh, LRRCC1 / RFU, ARID1A / Fold change vs veh, ARID1A / RFU, ZNF146 / Fold change vs veh, ZNF146 / RFU, ZNF330 / Fold change vs veh, ZNF330 / RFU, GPN3 / Fold change vs veh, GPN3 / RFU, C9orf123 / Fold change vs veh, C9orf123 / RFU, N4BP2L2 / Fold change vs veh, N4BP2L2 / RFU, ARFIP1 / Fold change vs veh, ARFIP1 / RFU, FAM179B / Fold change vs veh, FAM179B / RFU, BCL10 / Fold change vs veh, BCL10 / RFU, UHRF1BP1L / Fold change vs veh, UHRF1BP1L / RFU, BET1 / Fold change vs veh, BET1 / RFU, CNOT2 / Fold change vs veh, CNOT2 / RFU, ZNF268 / Fold change vs veh, ZNF268 / Fold change vs veh, ZNF507 / RFU, DGCR2 / Fold change vs veh, DGCR2 / RFU, WDSUB1 / Fold change vs veh, WDSUB1 / Fold change vs veh, HSP90B1 /// MIR3652 / RFU, ADSS / Fold change vs veh, ADSS / RFU, GK / Fold change vs veh, GK / RFU, ZNF148 / Fold change vs veh, ZNF148 / RFU, TAF9 / Fold change vs veh, TAF9 / RFU, SLC1A5 / Fold change vs veh, SLC1A5 / RFU, SLMO2 / Fold change vs veh, SLMO2 / RFU, ABCC4 / Fold change vs veh, ABCC4 / RFU, LOC101060439 /// RAP1B / Fold change vs veh, LOC101060439 /// RAP1B / RFU, RFX7 / Fold change vs veh, RFX7 / RFU, GTPBP10 / Fold change vs veh, GTPBP10 / RFU, CNEP1R1 / Fold change vs veh, CNEP1R1 / RFU, BIVM-ERCC5 /// ERCC5 / Fold change vs veh, BIVM-ERCC5 /// ERCC5 / RFU, ILF3 / Fold change vs veh, ILF3 / RFU 11762660_at / Fold change /veh 11762660_at / RFU VCAN (11757783_s_at) / Fold change /veh VCAN (11757783_s_at) / RFU DDX43 (11728927_at) / Fold change /veh DDX43 (11728927_at) / RFU KRT8 (11758188_x_at) / Fold change /veh KRT8 (11758188_x_at) / RFU NKD1 (11759106_at) / Fold change /veh NKD1 (11759106_at) / RFU SRD5A1 (11742802_a_at) / Fold change /veh SRD5A1 (11742802_a_at) / RFU TPSAB1 /// TPSB2 (11721975_s_at) / Fold change /veh TPSAB1 /// TPSB2 (11721975_s_at) / RFU GSTM3 (11746129_a_at) / Fold change /veh GSTM3 (11746129_a_at) / RFU IL23R (11737362_x_at) / Fold change /veh IL23R (11737362_x_at) / RFU TMEM51 (11727254_a_at) / Fold change /veh TMEM51 (11727254_a_at) / RFU PIWIL2 (11732686_x_at) / Fold change /veh PIWIL2 (11732686_x_at) / RFU ORM1 (11744905_x_at) / Fold change /veh ORM1 (11744905_x_at) / RFU CCDC152 (11743942_at) / Fold change /veh CCDC152 (11743942_at) / RFU ECM1 (11717891_a_at) / Fold change /veh ECM1 (11717891_a_at) / RFU IL23R (11748794_a_at) / Fold change /veh IL23R (11748794_a_at) / RFU TNFAIP8L3 (11732012_x_at) / Fold change /veh TNFAIP8L3 (11732012_x_at) / RFU MBOAT4 (11741988_at) / Fold change /veh MBOAT4 (11741988_at) / RFU 11764193_at / Fold change /veh 11764193_at / RFU TMEM53 (11763286_at) / Fold change /veh TMEM53 (11763286_at) / RFU MAGEB2 (11727129_at) / Fold change /veh MAGEB2 (11727129_at) / RFU TMEM200A (11744735_a_at) / Fold change /veh TMEM200A (11744735_a_at) / RFU CCDC152 (11751479_a_at) / Fold change /veh CCDC152 (11751479_a_at) / RFU FAM211A (11726209_a_at) / Fold change /veh FAM211A (11726209_a_at) / RFU RGS16 (11746705_a_at) / Fold change /veh RGS16 (11746705_a_at) / RFU VCAN (11755009_s_at) / Fold change /veh VCAN (11755009_s_at) / RFU RHOB (11743442_s_at) / Fold change /veh RHOB (11743442_s_at) / RFU RGS16 (11720943_a_at) / Fold change /veh RGS16 (11720943_a_at) / RFU RGS16 (11720944_at) / Fold change /veh RGS16 (11720944_at) / RFU, VPS4B / Fold change vs veh, VPS4B / RFU, CREB1 / Fold change vs veh, CREB1 / RFU, DNAJC13 / Fold change vs veh, DNAJC13 / RFU, GNAQ / Fold change vs veh, GNAQ / RFU, CDK5R1 / Fold change vs veh, CDK5R1 / RFU, ZRANB3 / Fold change vs veh, ZRANB3 / RFU, CUL4A / Fold change vs veh, CUL4A / RFU, CCNY / Fold change vs veh, CCNY / RFU, UFL1 / Fold change vs veh, UFL1 / RFU, COG3 / Fold change vs veh, COG3 / RFU, DIAPH2 / Fold change vs veh, DIAPH2 / RFU, SKA2 / Fold change vs veh, SKA2 / RFU, AFF3 / Fold change vs veh, AFF3 / RFU, LMF1 / Fold change vs veh, LMF1 / RFU, IPO11 / Fold change vs veh, IPO11 / RFU, DFFB / Fold change vs veh, DFFB / RFU, FOXP1 / Fold change vs veh, FOXP1 / RFU, CARD8 / Fold change vs veh, CARD8 / RFU, STRN3 / Fold change vs veh, STRN3 / RFU, ADK / Fold change vs veh, ADK / RFU, RASSF2 / Fold change vs veh, RASSF2 / RFU, WIPF1 / Fold change vs veh, WIPF1 / RFU, LARP1B / Fold change vs veh, LARP1B / RFU, RASA1 / Fold change vs veh, RASA1 / RFU, RB1 / Fold change vs veh, RB1 / RFU, PPFIA1 / Fold change vs veh, PPFIA1 / RFU, MAT2A / Fold change vs veh, MAT2A / RFU, CCT5 / Fold change vs veh, CCT5 / RFU, WDR92 / Fold change vs veh, WDR92 / RFU, CUX1 / Fold change vs veh, CUX1 / RFU, TTC7A / Fold change vs veh, TTC7A / RFU, TMEM135 / Fold change vs veh, TMEM135 / RFU, DEPTOR / Fold change vs veh, DEPTOR / RFU, CPM / Fold change vs veh, CPM / RFU, DNAJB6 / Fold change vs veh, DNAJB6 / RFU, CACNA2D3 / Fold change vs veh, CACNA2D3 / RFU, DTX4 / Fold change vs veh, DTX4 / RFU, TFCP2 / Fold change vs veh, TFCP2 / RFU, GMCL1 /// GMCL1P1 / Fold change vs veh, GMCL1 /// GMCL1P1 / RFU, AEBP2 / Fold change vs veh, AEBP2 / RFU, SNHG1 /// SNORD22 /// SNORD25 /// SNORD26 /// SNORD27 /// SNORD28 /// SNORD29 /// SNORD31 / Fold change vs veh, SNHG1 /// SNORD22 /// SNORD25 /// SNORD26 /// SNORD27 /// SNORD28 /// SNORD29 /// SNORD31 / Fold change (Aza/veh), C12orf56 (ProbeSet 11735607_a_at) / Fold change (ACY-1035/veh), C12orf56 (ProbeSet 11735607_a_at) / Fold change (Aza/veh), FGFR1OP (ProbeSet 11751329_s_at) / Fold change (ACY-1035/veh), FGFR1OP (ProbeSet 11751329_s_at) / Fold change (Aza/veh), VPS36 (ProbeSet 11739960_a_at) / Fold change (ACY-1035/veh), VPS36 (ProbeSet 11739960_a_at) / RFU SYPL1 (11715823_x_at) / Fold change /veh SYPL1 (11715823_x_at) / RFU IGFBP7 (11715501_s_at) / Fold change /veh IGFBP7 (11715501_s_at) / RFU REEP3 (11722064_at) / Fold change /veh REEP3 (11722064_at) / RFU IGLL1 (11728026_x_at) / Fold change /veh IGLL1 (11728026_x_at): dose or concentration left out as unconfirmed.

Take `Nc1ncn([C@@H]2O[C@H](CO)[C@@H](O)[C@H]2O)c(=O)n1` [azacitidine]: the “RFU, DNAJC13” value turned out to be 111.36 RFU.
